Laboratory results taken from patent US20230146455A1, “TREATMENT OF INFLAMMATORY DISEASES WITH PEPTIDES AND PHARMACEUTICAL COMPOSITIONS” (Yuyu Pharma, Inc., priority 2020, published 2023).
Values joined by “and” are separate entries in the source; they are usually repeats but may differ in a detail not shown here. Equal values may be shown once. Where a SMILES comes first, the peptide text is derived from it. [ ]: non-standard residue; d: D form. Hyp = O=C(O)[C@@H]1C[C@@H](O)CN1

Experiments:
MMP-3 = assay: Example 8 main study Luminex, LPS hPBMCs: MMP-3; format: cell-based, human; details: for MMP-3 Concentration: single replicates
Experimental: (§1) Human PBMCs were pretreated with YY-101, YDE-011, YDE-043 or reference compound; Xiidra® at various concentration (ranging from […] to 500 nM) for 2 h before stimulation. An equal volume of 0.5% DMSO was used as a vehicle control. Then, the cells were treated with LPS at 5 ug/ml, which was selected based on the pilot study. The supernatants from treated cells were harvested at 24 h and placed in a 96 well for Luminex cytokine & chemokine profiling using a Luminex 200 multiplex assay (Luminex; R&D system, USA).
(§2) The main study arm with triplicate wells per group in a 24-well plate: • 1. Blank • 2. PBMC: 0.5% DMSO • 3. PBMC+LPS (5 ug/ml) • 4. PBMC+YY-101 500 nM • 5. PBMC+YY-101 50 nM • 6. PBMC+YY-101 5 nM • 7. PBMC+YY-101 0.5 nM • 8. PBMC+LPS (5 ug/ml)+Xiidra® 500 nM • 9. PBMC+LPS (5 ug/ml)+Xiidra® 50 nM • 10. PBMC+LPS (5 ug/ml)+Xiidra® 5 nM • 11. PBMC+LPS (5 ug/ml)+Xiidra® 0.5 nM • 12. PBMC+LPS (5 ug/ml)+Xiidra® 0.05 nM • 13. PBMC+LPS (5 ug/ml)+Xiidra® 0.005 nM • 14. PBMC+LPS (5 ug/ml)+YY-101 500 nM • 15. PBMC+LPS (5 ug/ml)+YY-101 50 nM • 16. PBMC+LPS (5 ug/ml)+YY-101 5 nM • 17. PBMC+LPS (5 ug/ml)+YY-101 0.5 nM • 18. PBMC+LPS (5 ug/ml)+YY-101 0.05 nM • 19. PBMC+LPS (5 ug/ml)+YY-101 0.005 nM • 20. PBMC+LPS (5 ug/ml)+YDE-011 500 nM • 21. PBMC+LPS (5 ug/ml)+YDE-011 50 nM • 22. PBMC+LPS (5 ug/ml)+YDE-011 5 nM • 23. PBMC+LPS (5 ug/ml)+YDE-011 0.5 nM • 24. PBMC+LPS (5 ug/ml)+YDE-011 0.05 nM • 25. PBMC+LPS (5 ug/ml)+YDE-011 0.005 nM • 26. PBMC+LPS (5 ug/ml)+YDE-043 500 nM • 27. PBMC+LPS (5 ug/ml)+YDE-043 50 nM • 28. PBMC+LPS (5 ug/ml)+YDE-043 5 nM • 29. PBMC+LPS (5 ug/ml)+YDE-043 0.5 nM • 30. PBMC+LPS (5 ug/ml)+YDE-043 0.05 nM • 31. PBMC+LPS (5 ug/ml)+YDE-043 0.005 nM
(§3) Multiplex assay was used to measure 30 cytokines and chemokines. The 1:200 diluted cell supernatant and serial dilution of the standard were dispensed into a 96 well plate at 50 ul/well. Then, the pre-mixed cocktail of antibody-coated magnetic beads was dispensed at 50 ul/well and incubated at room temperature for 2 h in a horizontal orbital microplate shaker at 800±500 rpm. The beads were washed using a magnetic device to prevent loss. The biotin-antibody was dispensed in 50 ul of each well and incubated at room temperature for 1 h in a shaker at 800±500 rpm. After washing, streptavidin-PE was added at 50 ul/well and incubated at room temperature for 30 min in a shaker under the same conditions. Finally, after washing, wash buffer (100 ul/well) was added to the plate and incubated in a shaker for 2 min. The Luminex™ 200 setting were set according to the manufacturer's protocol. The data was calculated with a standard five-parameter logistic nonlinear regression analysis of the data (xPonent software 4.2, USA). Results were presented as concentration (ng/ml or pg/ml).

IL-8/CXCL8 = assay: Example 8 main study Luminex, LPS hPBMCs: IL-8/CXCL8; format: cell-based, human
Experimental: as §1, §2, §3

[1] = PBMC + LPS(5 ug/ml) + YY101 0.005 nM
[2] = PBMC + LPS(5 ug/ml) + YY101 0.05 nM
[3] = PBMC + LPS(5 ug/ml) + YY101 0.5 nM
[4] = PBMC + LPS(5 ug/ml) + YY101 5 nM
[5] = PBMC + LPS(5 ug/ml) + YY101 50 nM
[6] = PBMC + LPS(5 ug/ml) + YY101 500 nM
[7] = at as low as 5 μM, LPS 5 ug/mL 24 hrs

CC(C)C[C@H](NC(=O)CNC(=O)[C@H](CC(=O)O)NC(=O)[C@H](CCC(N)=O)NC(=O)CNC(=O)[C@@H]1C[C@@H](O)CN1)C(=O)N[C@@H](C)C(=O)NCC(=O)N1CCC[C@H]1C(=O)N[C@@H](CCCCN)C(=O)O [YY-101] (H-[Hyp]GQDGLAGPK-OH; N-terminus and C-terminus assumed)
MMP-3 Concentration, Mean (MMP-3; [1]): 7549.8 pg/mL | MMP-3 Concentration (MMP-3; [1]): 7549.7 pg/mL and 7474.3 pg/mL and 7625.3 pg/mL | MMP-3 Concentration, Mean (MMP-3; [2]): 8082.3 pg/mL | MMP-3 Concentration (MMP-3; [2]): 7776.9 pg/mL and 8541.1 pg/mL and 7928.9 pg/mL | MMP-3 Concentration, Mean (MMP-3; [3]): 7751.6 pg/mL | MMP-3 Concentration (MMP-3; [3]): 7701.1 pg/ml and 7776.9 pg/ml (2×) | MMP-3 Concentration, Mean (MMP-3; [4]): 7905.9 pg/mL | MMP-3 Concentration (MMP-3; [4]): 7549.7 pg/ml (2×) and 8618.2 pg/ml | MMP-3 Concentration, Mean (MMP-3; [5]): 7777.4 pg/mL | MMP-3 Concentration (MMP-3; [5]): 7549.7 pg/mL and 7701.1 pg/mL and 8081.3 pg/mL | MMP-3 Concentration, Mean (MMP-3; [6]): 7752.0 pg/mL | MMP-3 Concentration (MMP-3; [6]): 8043.1 pg/mL and 7663.2 pg/mL and 7549.7 pg/mL | MMP-3 Concentration, Mean (MMP-3; PBMC + YY101 0.5 nM, no LPS): 6246.3 pg/mL | MMP-3 Concentration (MMP-3; PBMC + YY101 0.5 nM, no LPS): 6062.8 pg/mL and 6429.9 pg/mL | MMP-3 Concentration, Mean (MMP-3; PBMC + YY101 5 nM, no LPS): 6246.0 pg/mL | MMP-3 Concentration (MMP-3; PBMC + YY101 5 nM, no LPS): 6172.6 pg/mL and 6319.4 pg/mL | MMP-3 Concentration, Mean (MMP-3; PBMC + YY101 0.05 uM, no LPS): 6374.8 pg/mL | MMP-3 Concentration (MMP-3; PBMC + YY101 0.05 uM, no LPS): 6503.7 pg/mL and 6245.9 pg/mL | MMP-3 Concentration, Mean (MMP-3; PBMC + YY101 50 nM, no LPS): 6118.0 pg/mL | MMP-3 Concentration (MMP-3; PBMC + YY101 50 nM, no LPS): 6282.7 pg/mL and 5953.3 pg/mL | MMP-3 Concentration, Mean (MMP-3; PBMC + YY101 500 nM, no LPS): 6356.3 pg/mL | MMP-3 Concentration (MMP-3; PBMC + YY101 500 nM, no LPS): 6282.7 pg/mL and 6429.9 pg/mL | LPS-induced MMP3 (in words) (MMP-3; [7]): significantly reduced | IL-8/CXCL8 Concentration, Mean (IL-8/CXCL8; PBMC + LPS(5 ug/ml) + test article 0.005 nM): 58481.9 pg/mL | IL-8/CXCL8 Concentration (IL-8/CXCL8; PBMC + LPS(5 ug/ml) + test article 0.005 nM, single replicates (1st, 2nd, 3rd)): 61546.6 pg/mL and 56884.9 pg/mL and 57014.3 pg/mL | IL-8/CXCL8 Concentration, Mean (IL-8/CXCL8; PBMC + LPS(5 ug/ml) + test article 0.05 nM): 59990.6 pg/mL | IL-8/CXCL8 Concentration (IL-8/CXCL8; PBMC + LPS(5 ug/ml) + test article 0.05 nM, single replicates (1st, 2nd, 3rd)): 57359.8 pg/mL and 60536.4 pg/mL and 62075.6 pg/mL | IL-8/CXCL8 Concentration, Mean (IL-8/CXCL8; PBMC + LPS(5 ug/ml) + test article 0.5 nM): 60251.0 pg/mL | IL-8/CXCL8 Concentration (IL-8/CXCL8; PBMC + LPS(5 ug/ml) + test article 0.5 nM, single replicates (1st, 2nd, 3rd)): 60909.2 pg/mL and 57900.7 pg/mL and 61943.2 pg/mL | IL-8/CXCL8 Concentration, Mean (IL-8/CXCL8; PBMC + LPS(5 ug/ml) + test article 5 nM): 57315.8 pg/mL | IL-8/CXCL8 Concentration (IL-8/CXCL8; PBMC + LPS(5 ug/ml) + test article 5 nM, single replicates (1st, 2nd, 3rd)): 55583.6 pg/mL and 55980.8 pg/mL and 60383.1 pg/mL | IL-8/CXCL8 Concentration, Mean (IL-8/CXCL8; PBMC + LPS(5 ug/ml) + test article 50 nM): 54680.4 pg/mL | IL-8/CXCL8 Concentration (IL-8/CXCL8; PBMC + LPS(5 ug/ml) + test article 50 nM, single replicates (1st, 2nd, 3rd)): 54759.1 pg/mL and 53065.0 pg/mL and 56217.2 pg/mL | IL-8/CXCL8 Concentration, Mean (IL-8/CXCL8; PBMC + LPS(5 ug/ml) + test article 500 nM): 58292.3 pg/mL | IL-8/CXCL8 Concentration (IL-8/CXCL8; PBMC + LPS(5 ug/ml) + test article 500 nM, single replicates (1st, 2nd, 3rd)): 60492.6 pg/mL and 59945.6 pg/mL and 54438.6 pg/mL | IL-8/CXCL8 Concentration, Mean (IL-8/CXCL8; PBMC + test article 0.5 nM, no LPS): 3635.9 pg/mL | IL-8/CXCL8 Concentration (IL-8/CXCL8; PBMC + test article 0.5 nM, no LPS, single replicates (1st, 2nd)): 1970.8 pg/mL and 5300.9 pg/mL | IL-8/CXCL8 Concentration, Mean (IL-8/CXCL8; PBMC + test article 5 nM, no LPS): 2809.1 pg/mL | IL-8/CXCL8 Concentration (IL-8/CXCL8; PBMC + test article 5 nM, no LPS, single replicates (1st, 2nd)): 3848.8 pg/mL and 1769.4 pg/mL | IL-8/CXCL8 Concentration, Mean (IL-8/CXCL8; PBMC + test article 0.05 uM, no LPS): 8117.7 pg/mL | IL-8/CXCL8 Concentration (IL-8/CXCL8; PBMC + test article 0.05 uM, no LPS, single replicates (1st, 2nd)): 13586.7 pg/mL and 2648.7 pg/mL | IL-8/CXCL8 Concentration, Mean (IL-8/CXCL8; PBMC + test article 50 nM, no LPS): 1630.9 pg/mL | IL-8/CXCL8 Concentration (IL-8/CXCL8; PBMC + test article 50 nM, no LPS, single replicates (1st, 2nd)): 2009.8 pg/mL and 1252.1 pg/mL | IL-8/CXCL8 Concentration, Mean (IL-8/CXCL8; PBMC + test article 500 nM, no LPS): 1641.8 pg/mL | IL-8/CXCL8 Concentration (IL-8/CXCL8; PBMC + test article 500 nM, no LPS, single replicates (1st, 2nd)): 1297.1 pg/mL and 1986.4 pg/mL | LPS-induced IL-8 (in words) (IL-8/CXCL8; [7]): significantly reduced
